Test [1] concerns constitutive active colorectal cancer cell (CRC) Wnt pathway. Description: HCT116 TOPFlash cellular reporter assay (Super TopFlash luciferase), constitutive active Wnt pathway. It is filed as cell-based. As to conditions: HCT116 TOP reporter cells, 36 hours incubation, luciferase expression. How it is done: In order to discover and characterize small molecules which inhibit the constitutive active colorectal cancer cell (CRC) Wnt pathway, a cellular reporter assay was employed. […] Stable transfectants were generated by cotransfection with pcDNA3 and selection of stable transfected cells with 1 mg/ml G418.
(In a reporter assay the amount or activity of a reporter protein is the signal.)

The test system of test [2] is HCT116 FOP control reporter cell line. Nature of the test: HCT116 FOPFlash control reporter assay (FOP control vector, non-functional TCF elements). The settings on record: HCT116 FOP control reporter cells, 36 hours incubation, luciferase expression. In kind it is cell-based. The text has this:
In a parallel approach, HCT116 cells were cotransfected with the FOP control vector and pcDNA3. The FOP vector is identical to the TOP construct, but it contains instead of functional TCF elements a randomized, non-functional sequence. For this transfection a stable transfected cell line was generated as well.

Here are results for 21 compounds from US10130633B2, “Compounds” (BAYER PHARMA AKTIENGESELLSCHAFT, priority 2013, dated 2018).

SMILES strings stand for the structures. Some results are limits rather than exact numbers.

Usually IC50 stands for the concentration that inhibits the measured activity by half. Read a low IC50 as greater potency in that assay. Take `O=C(CN1CCOCC1)Nc1cc(NC(=O)c2ccc(-c3c(F)cccc3F)nc2)ccc1OC(F)(F)F` [Example 29, 6-(2,6-difluorophenyl)-N-{3-[(morpholin-4-ylacetyl)amino]-4-(trifluoromethoxy)phenyl}nicotinamide]: the half-maximal inhibitory concentration (IC50) in test [1] (Homo sapiens, HCT-116, 36 h) was 156 nM; in test [2] (Homo sapiens, HCT-116, 36 h), ≥ 50000 nM.

For the compound `COc1ccc(NC(=O)c2ccc(-c3ccccc3F)nc2)cc1NC(=O)CN1CCOCC1` [Example 31, 6-(2-fluorophenyl)-N-{4-methoxy-3-[(morpholin-4-ylacetyl)amino]phenyl}nicotinamide], the IC50 came out at 805 nM in test [1] (Homo sapiens, HCT-116, 36 h) and 36000 nM in test [2] (Homo sapiens, HCT-116, 36 h).

As to `COc1ccc(NC(=O)c2ccc(-c3ccccc3)nc2)cc1NC(=O)CN1CCOCC1` [Example 34, N-{4-methoxy-3-[(morpholin-4-ylacetyl)amino]phenyl}-6-phenylnicotinamide], the IC50 is 1220 nM in test [1] (Homo sapiens, HCT-116, 36 h) and ≥ 50000 nM in test [2] (Homo sapiens, HCT-116, 36 h).

On to `COc1ccc(NC(=O)c2ccc(-c3ccc(F)cc3)s2)cc1NC(=O)CN1CCOCC1` [Example 36, 5-(4-fluorophenyl)-N-{4-methoxy-3-[(morpholin-4-ylacetyl)amino]phenyl}thiophene-2-carboxamide], for which the concentration for half-maximal inhibition (IC50) is 1200 nM in test [1] (Homo sapiens, HCT-116, 36 h) and 22000 nM in test [2] (Homo sapiens, HCT-116, 36 h).

Take `CN1CCN(C2(C(=O)Nc3cc(C(=O)Nc4nnc(-c5ccccc5)s4)ccc3OC(F)F)CC2)CC1` [Example 39, 4-(difluoromethoxy)-3-({[1-(4-methylpiperazin-1-yl)cyclopropyl]carbonyl}amino)-N-(5-phenyl-1,3,4-thiadiazol-2-yl)benzamide]: the half-maximal inhibitory concentration (IC50) was 33.8 nM in test [1] (Homo sapiens, HCT-116, 36 h) and 32000 nM in test [2] (Homo sapiens, HCT-116, 36 h).

On to `CN1CCN(C2(C(=O)Nc3cc(C(=O)Nc4nnc(-c5ccccc5)s4)ccc3OC(F)(F)F)CC2)CC1` [Example 52, 3-({[1-(4-methylpiperazin-1-yl)cyclopropyl]carbonyl}amino)-N-(5-phenyl-1,3,4-thiadiazol-2-yl)-4-(trifluoromethoxy)benzamide], for which the IC50 in test [1] (Homo sapiens, HCT-116, 36 h) was 26.5 nM; in test [2] (Homo sapiens, HCT-116, 36 h) it was ≥ 50000 nM.

With `O=C(CN1CCOCC1)Nc1cc(C(=O)Nc2nnc(-c3ccccc3)s2)ccc1OC(F)(F)F` [Example 55, 3-[(morpholin-4-ylacetyl)amino]-N-(5-phenyl-1,3,4-thiadiazol-2-yl)-4-(trifluoromethoxy)benzamide], the IC50 in test [1] (Homo sapiens, HCT-116, 36 h) is 150 nM; in test [2] (Homo sapiens, HCT-116, 36 h), ≥ 50000 nM.

Consider `CN1CCN(CC(=O)Nc2cc(C(=O)Nc3nnc(-c4ccccc4)s3)ccc2C(F)(F)F)CC1` [Example 59, 3-{[(4-methylpiperazin-1-yl)acetyl]amino}-N-(5-phenyl-1,3,4-thiadiazol-2-yl)-4-(trifluoromethyl)benzamide], for which the IC50 in test [1] (Homo sapiens, HCT-116, 36 h) was 385 nM; in test [2] (Homo sapiens, HCT-116, 36 h) it was ≥ 50000 nM.

As to `CC(C(=O)Nc1cc(C(=O)Nc2ccc(-c3cccc(F)c3)nc2)ccc1OC(F)(F)F)N1CCOCC1` (stereo not drawn) [Example 69, N-[6-(3-fluorophenyl)pyridin-3-yl]-3-{[2-(morpholin-4-yl)propanoyl]amino}-4-(trifluoromethoxy)benzamide], the values for the IC50 in test [1] and in test [2] were 14.8 nM and ≥ 50000 nM, respectively.

As for `O=C(CN1CCOCC1)Nc1cc(C(=O)Nc2ccc(-c3cc(F)cc(F)c3)nc2)ccc1OC(F)(F)F` [Example 72, N-[6-(3,5-difluorophenyl)pyridin-3-yl]-3-[(morpholin-4-ylacetyl)amino]-4-(trifluoromethoxy)benzamide], the IC50 in test [1] (Homo sapiens, HCT-116, 36 h) stood at 106 nM; in test [2] (Homo sapiens, HCT-116, 36 h), 8000 nM.

As to `O=C(CN1CC2CCC(C1)O2)Nc1cc(C(=O)Nc2ccc(-c3cc(F)cc(F)c3)nc2)ccc1OC(F)(F)F` [Example 73, N-[6-(3,5-difluorophenyl)pyridin-3-yl]-3-[(8-oxa-3-azabicyclo[3.2.1]oct-3-ylacetyl)amino]-4-(trifluoromethoxy)benzamide], the IC50 is 98.5 nM in test [1] (Homo sapiens, HCT-116, 36 h) and ≥ 50000 nM in test [2] (Homo sapiens, HCT-116, 36 h).

`O=C(CN1CCOCC1)Nc1cc(C(=O)Nc2ccc(-c3ccccc3F)nc2)ccc1C(F)(F)F` [Example 74, N-[6-(2-fluorophenyl)pyridin-3-yl]-3-[(morpholin-4-ylacetyl)amino]-4-(trifluoromethyl)benzamide]: the IC50 in test [1] (Homo sapiens, HCT-116, 36 h) amounted to 85.8 nM; in test [2] (Homo sapiens, HCT-116, 36 h) it was 42200 nM.

For `O=C(Nc1ccc(-c2ccccc2F)nc1)c1ccc(F)c(NC(=O)C2(N3CCOCC3)CC2)c1` [Example 77, 4-fluoro-N-[6-(2-fluorophenyl)pyridin-3-yl]-3-({[1-(morpholin-4-yl)cyclopropyl]carbonyl}amino)benzamide], the IC50 in test [1] (Homo sapiens, HCT-116, 36 h) is 370 nM; in test [2] (Homo sapiens, HCT-116, 36 h), 14000 nM.

Turning to `O=C(Nc1nnc(-c2ccccc2)s1)c1ccc(F)c(NC(=O)C2(N3CCOCC3)CC2)c1` [Example 78, 4-fluoro-3-({[1-(morpholin-4-yl)cyclopropyl]carbonyl}amino)-N-(5-phenyl-1,3,4-thiadiazol-2-yl)benzamide], the IC50 was 508 nM in test [1] (Homo sapiens, HCT-116, 36 h) and ≥ 50000 nM in test [2] (Homo sapiens, HCT-116, 36 h).

On to `COc1ccc(C(=O)Nc2ccc(-c3ccccc3F)nc2)cc1NC(=O)C1(N2CCOCC2)CCC1` [Example 82, N-[6-(2-fluorophenyl)pyridin-3-yl]-4-methoxy-3-({[1-(morpholin-4-yl)cyclobutyl]carbonyl}amino)benzamide], for which the IC50 was 2550 nM in test [1] (Homo sapiens, HCT-116, 36 h) and ≥ 50000 nM in test [2] (Homo sapiens, HCT-116, 36 h).

In the case of `COCc1ccc(C(=O)Nc2nnc(-c3ccccc3)s2)cc1NC(=O)CN1CCOCC1` [Example 83, 4-(methoxymethyl)-3-[(morpholin-4-ylacetyl)amino]-N-(5-phenyl-1,3,4-thiadiazol-2-yl)benzamide], the IC50 was 515 nM in test [1] (Homo sapiens, HCT-116, 36 h) and ≥ 50000 nM in test [2] (Homo sapiens, HCT-116, 36 h).

With `COCc1ccc(C(=O)Nc2nnc(-c3ccccc3)s2)cc1NC(=O)CN1CCN(C2CC2)CC1` [Example 84, 3-{[(4-cyclopropylpiperazin-1-yl)acetyl]amino}-4-(methoxymethyl)-N-(5-phenyl-1,3,4-thiadiazol-2-yl)benzamide], the IC50 in test [1] (Homo sapiens, HCT-116, 36 h) is 453 nM; in test [2] (Homo sapiens, HCT-116, 36 h), ≥ 50000 nM.

Take `COCCN(C)CC(=O)Nc1cc(C(=O)Nc2nnc(-c3ccccc3)s2)ccc1OC(F)(F)F` [Example 85, 3-{[N-(2-methoxyethyl)-N-methylglycyl]amino}-N-(5-phenyl-1,3,4-thiadiazol-2-yl)-4-(trifluoromethoxy)benzamide]: the IC50 in test [1] (Homo sapiens, HCT-116, 36 h) is 150 nM; in test [2] (Homo sapiens, HCT-116, 36 h), ≥ 50000 nM.

Turning to `O=C(CN1CC2CCC(C1)O2)Nc1cc(C(=O)Nc2nnc(-c3ccccc3)s2)ccc1OC(F)F` [Example 86, 4-(difluoromethoxy)-3-[(8-oxa-3-azabicyclo[3.2.1]oct-3-ylacetyl)amino]-N-(5-phenyl-1,3,4-thiadiazol-2-yl)benzamide], the IC50 is 890 nM in test [1] (Homo sapiens, HCT-116, 36 h) and ≥ 50000 nM in test [2] (Homo sapiens, HCT-116, 36 h).

Take `CC(C(=O)Nc1cc(C(=O)Nc2nnc(-c3ccccc3)s2)ccc1CS(C)(=O)=O)N1CCOCC1` (stereo not drawn) [Example 87, 4-[(methylsulfonyl)methyl]-3-{[2-(morpholin-4-yl)propanoyl]amino}-N-(5-phenyl-1,3,4-thiadiazol-2-yl)benzamide]: the IC50 was 858 nM in test [1] (Homo sapiens, HCT-116, 36 h) and 48000 nM in test [2] (Homo sapiens, HCT-116, 36 h).

Consider `CC(C(=O)Nc1cc(C(=O)Nc2nnc(-c3ccccc3)s2)ccc1CS(C)(=O)=O)N1CCN(C)CC1` (stereo not drawn) [Example 88, 3-{[2-(4-methylpiperazin-1-yl)propanoyl]amino}-4-[(methylsulfonyl)methyl]-N-(5-phenyl-1,3,4-thiadiazol-2-yl)benzamide], for which the 50% inhibitory concentration (IC50) is 417 nM in test [1] and ≥ 50000 nM in test [2].
